Assay results as given in patent US9962326B2, “Compositions comprising paulownia tomentosa wood extracts and uses thereof” (JOHNSON & JOHNSON CONSUMER INC., priority 2010, dated 2018).

Tested on: UV-induced ROS, primary human keratinocytes
Assay: Inhibition of Reactive Oxygen Species Formation in primary human keratinocytes
Format: cell-based
Conditions: for Reactive Oxygen Species Produced (MFU): 60 minutes post UV
Method: The anti-oxidant activity of Paulownin was established via the Inhibition of Reactive Oxygen Species Formation assay described above. In this study primary human keratinocytes were substituted for human epithelial (KB) cells. The keratinocytes were plated in 96-well tissue culture treated plates at a density of 5000 cells/well in Dulbecco's modified Eagle's medium (DMEM) supplemented with 10% fetal bovine serum (Invitrogen Corp., San Diego, Calif.). After 48 hours, cells were incubated for 30 minutes with 5 μM of the hydrogen peroxide-sensitive fluorescent probe 5-(and-6)-chloromethyl-2′,7′-dichlorodihydro-fluorescein diacetate, acetyl ester (CM-H2DCFDA) (Invitrogen Corp., Carlsbad, Calif.). After incubation, the plate was rinsed to remove excess probe and Paulownin was added at the indicated concentrations. The plate was immediately read on a fluorescent plate reader set at wavelengths 485 nm excitation/530 nm emission to detect basal peroxide formation. The plate was then exposed to UV (1000W-Oriel solar simulator equipped with a 1 mm Schott WG 320 filter; UV dose applied 4.2 kJ/m^2 as measured at 360 nm). The plate was read 60 minutes post UV exposure and the data reported as mean fluorescent units (MFU).

Structure (SMILES): OC12COC(c3ccc4c(c3)OCO4)C1COC2c1ccc2c(c1)OCO2 (stereo not shown) [Paulownin]
- UV-induced production of ROS (in words): significantly reduce
- Percent Inhibition of UV Induced ROS Formation (UV + 50 ug/ml): 65.3%
- Reactive Oxygen Species Produced (MFU) (UV + 50 ug/ml): 46.3 ± 6.9 MFU
- Percent Inhibition of UV Induced ROS Formation (UV + 100 ug/ml): 69.5%
- Reactive Oxygen Species Produced (MFU) (UV + 100 ug/ml): 40.5 ± 6.1 MFU
- Percent Inhibition of UV Induced ROS Formation (UV + 200 ug/ml): 72.1%
- Reactive Oxygen Species Produced (MFU) (UV + 200 ug/ml): 37.2 ± 3.4 MFU
